From patent US20060052421A1, “Conjugation agent” (Eastman Kodak Company, priority 2004, published 2006) come the findings set out here.

Data set [1] can be described thus: Aqueous stability: lifetime of the non-bonded conjugation agent (hydrolysis), followed by HPLC. The data set is classed as physicochemical. Conditions: Table 2, neutral (pH 7) aqueous phosphate buffer, time for loss of about 66%. As for the experimental part:
(§1) The measures of thiol reactivities, thiol chemoselectivities, and aqueous stabilities were determined by the rate constants for the corresponding processes, i.e., relative rate constants for reaction with thiol-containing groups (thiol reactivity), the ratio of thiol to amine rate constants (chemoselectivity for thiol-containing groups), and the rate constant for decomposition of the non-bonded conjugation agent in an aqueous environment (aqueous stability). Equations used in the interpretation of kinetic experiments may be found in J. H. Espenson, Chemical Kinetics and Reaction Mechanisms; McGraw-Hill: New York, 1981.
(§2) The general structure of the conjugation agents used in Example 1 is shown below in formula V, and details of the structure for each conjugation agent are provided in Table 1. […] The selectivity is the ratio of krel(MESNA)/krel(Lys). The lifetime (τ) of a conjugation agent was measured as the time required for loss of about 66% of the starting amount in the solution of 80% phosphate buffer (pH 7)/20% acetonitrile. […] The progress of the reactions was followed by high performance liquid chromatography (HPLC) for up to 1 week. For lifetimes longer than about one week, the values were estimated based on the observed extent of decomposition, where possible. Conjugates labeled “I” are inventive; those labeled “C” are comparative. [drawing 21]
Selectivity values were generated using the lowest detection limit of the equipment as the value of krel(Lys).
(§3) The hydrolytic stability data was determined as the lifetime (r) as defined above, but in neutral (pH 7) aqueous phosphate buffer. Formulas for comparative conjugation agents C4-C10, and inventive conjugation agents I2-I6, are shown below. [drawing 22] [drawing 23]

Data set [2] in a line: Thiol reactivity: substitution reaction of the conjugation agent with MESNA, followed by HPLC. The following applies: for krel (MESNA): Table 2, water soluble conjugation agents, determined as for Table 1. As for the experimental part: as §1
For the reactivity measurements, […] (MESNA) was used as the thiol-containing target, and lysine (Lys) was used as the amine target. The relevant reaction sequences are shown below, where LG is a leaving group, such as a halide, or alternatively a leaving group of the invention (Sx—Rs), such as an N-ethylmercaptotetrazolyl (EMT) group. All reactions were carried out at standard temperature and pressure. [drawing 20]
as §2, §3

The nature of data set [3]: Transamination of I7 with a lysine amide. The following applies: ambient temperature, pH 5.65. From the text:
Inventive conjugation agent I7 is an example of a conjugation agent designed to sequentially link a substrate containing amine groups, such as a support coated with gelatin, to a target containing thiol groups. [drawing 24] I7 was formed by conversion of the carboxylic acid functionality in I5 into a sulfosuccinate ester via standard procedures shown below in Example 3. This provided a functional group that was reactive towards amine groups. Near quantitative reaction of I7 with a corresponding lysine amide was conducted under transamination conditions (ambient temperature, pH 5.65, bimolecular rate constant for transamination, kbi=3.3 M^−1min^−1). This reaction was carried out under mildly acidic conditions to minimize the known competing hydrolysis of the sulfosuccinate ester. The resultant conjugate was called I8.

`C=CS(=O)(=O)CS(=O)(=O)C=C` [C9, bis(vinylsulfonyl)methane, reference compound] gave a Lifetime in data set [1] of 0.75 days. Moreover, the “krel (MESNA)” value in data set [2] was found to be 0.7.

In data set [1], `CCN1C(=O)C=CC1=O` [C10, N-ethylmaleimide, reference compound] yielded a Lifetime of 1 days. In addition, in data set [2], the “krel (MESNA)” value is on record as 24.3.

As for `CCn1nnnc1Sc1cc(C(=O)NCCC(=O)O)c([N+](=O)[O-])cc1[N+](=O)[O-]` [I3], in data set [2], the “krel (MESNA)” value stood at 0.1.

For the compound `CCn1nnnc1Sc1c(C(=O)NCCC(=O)O)cc([N+](=O)[O-])cc1[N+](=O)[O-]` [I4], the “krel (MESNA)” value in data set [2] is recorded as 0.4. Further, the “Reactivity towards thiol-containing groups relative to C6” value in data set [2] (Table 2 data) is reported as 100 times.

As to `CCn1nnnc1Sc1c([N+](=O)[O-])cc(C(=O)NCCC(=O)O)cc1[N+](=O)[O-]` [I5], in data set [2], the “krel (MESNA)” value was found to be 1.0. The “krel(thiol, I5)/krel(thiol, 12)” value in data set [2] (ratio of Table 2 krel values) is “about 125”.

On to `CCn1nnnc1Sc1cc[n+](Cc2ccccc2)cc1` [I6], for which the Lifetime in data set [1] (nd = hydrolysis not detected) was found to be 24 days. The “krel (MESNA)” value in data set [2] was determined as 1.9.

Turning to `CCn1nnnc1Sc1c([N+](=O)[O-])cc(C(=O)NCCC(=O)ON2C(=O)CC(S(=O)(=O)[O-])C2=O)cc1[N+](=O)[O-].[Na+]` (stereo not drawn) [I7], in data set [3], the “bimolecular rate constant for transamination, kbi” value worked out at 0.055 M⁻¹ s⁻¹.
